Series [1] can be described thus: Pharmacokinetic test - mice. The series is classed as in vivo, Balb/c mice. The following applies: mouse, 3 mg/kg, Mice PK, IV, 3 mpk, single injection, plasma. Here is the method:
Experimental objective: To evaluate the pharmacokinetic characteristics of the compound of the present application in mice.
Balb/c mice (purchased from Beijing Vital River) were randomly divided, 12 mice/group, half male and half female, and were injected once with a sample (10% DMSO-90% (20% 2-hydroxypropyl-β-cyclodextrin-physiological saline), diluted according to the dose). Cross samples of plasma were respectively taken before administration, and at 5 min, 30 min, 1 h, 2 h, 4 h, 6 h, 8 h, 10 h, and 24 h after administration. The sample concentration in plasma was determined by LC-MS method, and pharmacokinetic parameters were calculated (see Table 3). Table 3 Pharmacokinetic characteristics of the compound of the present application in mice

The test system of the next series is MDA-MB-468 cells. Briefly: Inhibitory activity on MDA-MB-468 cells (MTT). The following applies: for IC50: Homo sapiens, read-out: MDA-MB-468 IC50. The series is classed as cell-based. Here is the method: (§1) MDA-MB-468 cells (purchased from ATCC) were cultured in L-15 culture medium (purchased from Sigma-Aldrich), NCI-N87 cells (purchased from ATCC) were cultured in RPMI-1640 culture medium (purchased from Gibco), and HT29 cells (purchased from ATCC) were cultured in McCoy's 5A culture medium (purchased from Gibco), each of which was supplemented with 10% fetal bovine serum and 1% penicillin-streptomycin solution, and placed in a 5% CO2 incubator at 37°C. The cells were seeded in 96-well plates at 3000 cells per well and cultured overnight. Different concentrations of drugs were respectively added, and the cells were placed in a normal incubator (21% O2, 5% CO2, and 74% N2) and cultured for 72 h. 100 µL of culture medium was removed. 10 µL of MTT solution (5 mg/mL) was added. Then the cells were cultured in the incubator for 4 hours. 50 µL of triple combination solution (10% SDS, 5% isobutanol, and 0.012 mol/L HCl) was added. The cells were placed in the incubator overnight. OD values were measured at 540 nm wavelength, and median inhibition concentration IC50 of the drug on tumor cell growth was calculated (n=3).

The test system of the next series is NCI-N87 cells. Description: Inhibitory activity on NCI-N87 cells (MTT). The series is classed as cell-based, human. The following applies: for IC50: Homo sapiens, read-out: NCI-N87 IC50. Here is the method:
as §1

The next series has as its system HCT116 cells. Briefly: HCT-116 cell inhibitory activity test (MTT). The series is classed as cell-based. Conditions: Homo sapiens, read-out: IC50 Activity. As to the method:
HCT116 cells (purchased from ATCC) were cultured in a 5% CO2 incubator at 37 °C using DMEM culture medium (purchased from Gibco) supplemented with 10% fetal bovine serum and 1% penicillin-streptomycin solution. The cells were seeded in 96-well plates at 3000 cells per well and cultured overnight. Different concentrations of drugs were respectively added, and the cells were placed in a normal incubator (21 % O2, 5% CO2, and 74% N2) and cultured for 72 h. 100 µL of culture medium was removed. 10 µL of MTT solution (5 mg/mL) was added. Then the cells were cultured in the incubator for 4 hours. 50 µL of triple combination solution (10% SDS, 5% isobutanol, and 0.012 mol/L HCl) was added. The cells were placed in the incubator overnight. OD values were measured at 540 nm wavelength, and median inhibition concentration IC50 of the drug on tumor cell growth was calculated (n=3). Compounds with activity designated as "A" provide IC50≤10nM. Compounds with activity designated as "B" provide IC50 of 10 nM to 100 nM. Compounds with activity designated as "C" provide IC50 of 100 nM to 1000 nM. Compounds with activity designated as "D" provide IC50 of 1000 nM to 10000 nM. Titer (nM); Efficacy (IC50).

The nature of series [2]: Pharmacokinetic test - rats. Further details: species or system SD rats. Conditions: in vivo, 3 mg/kg, Rat PK, IV, 3 mpk, single injection, plasma; for Vd: read-out: Vz. As to the method:
Experimental objective: To evaluate the pharmacokinetic characteristics of the compound of the present application in rats.
SD rats (Beijing Vital River Laboratory Animal Technology Co., Ltd.) were randomly divided, 6 rats/group, half male and half female, and were injected once with a sample (10% DMSO-90% (20% 2-hydroxypropyl-β-cyclodextrin-physiological saline), diluted according to the dose). Plasma samples were respectively taken before administration, and at 5 min, 30 min, 1 h, 2 h, 4 h, 6 h, 8 h, 10 h, and 24 h after administration. The sample concentration in plasma was determined by LC-MS method, and pharmacokinetic parameters were calculated (see Table 4). Table 4 Pharmacokinetic characteristics of the compound of the present application in SD rats

A further series has as its system HT29 cells. Briefly: Inhibitory activity on HT29 cells (MTT). The series is classed as cell-based, human. Conditions: for IC50: Homo sapiens, read-out: HT29 IC50. Here is the method:
as §1

Series [3] is classed as in vivo. Conditions: SD rats, intravenous administration once a day for 7 consecutive days; result in words. An excerpt:
The possible toxic reactions and severity thereof of the drug on SD rats were observed after continuous intravenous administration for 7 days. The toxicity of the compound in rodents was preliminarily evaluated. SD rats (Beijing Vital River Laboratory Animal Technology Co., Ltd.) were randomly divided, 6 rats/group, half male and half female, and injected with samples (preparation: 10% DMSO-90% (20% 2-hydroxypropyl-β-cyclodextrin-physiological saline), diluted according to the dose) once a day for 7 consecutive days. Weight and food intake were monitored every two days, and the status of the animals was observed. Blood samples were taken 24 h after the last dose for hematology, blood biochemistry and coagulation indexes.

The AUC(0-inf) is the area under the concentration-time curve extrapolated to infinity. Higher therefore signals more exposure. Broadly, the Cmax is the maximum level reached in the sampled fluid or tissue. By clearance is commonly meant a measure of how efficiently the substance is removed, as volume per time. Low readings indicate a low capacity for elimination, high ones a high capacity for elimination. Usually half-life stands for how long it takes for the measured level to halve. A lower half-life goes with fast loss. The term IC50 denotes the concentration needed to halve the response being measured.

Read-outs that look alike come from different tables or passages of the source.

Regarding `[2H]C1([2H])OC(=O)[C@](O)(CC)c2cc3n(c(=O)c21)Cc1c-3nc2cc(F)c(C)c3c2c1[C@@H](N)CC3` [Compound A-11], the figures for the AUC(0-inf) in series [1] and in series [2] were 321 ng·h/mL and 135 ng·h/mL, respectively. The Cmax in series [1] amounted to 902 ng/mL; in series [2] it was 215 ng/mL. Besides, the clearance in series [1] is 156 mL/min/kg; in series [2], 381 mL/min/kg. The results for the half-life in series [1] and in series [2] were 1.19 h and 0.91 h, respectively. Besides, the Vd in series [1] (read-out: Vz) stood at 16 L/kg; in series [2], 30.1 L/kg. For the same molecule, the IC50 in the series with MDA-MB-468 cells (MDA-MB-468 cells, 72 h, MTT, n=3) is less than 10 nM; in the series on NCI-N87 cells (NCI-N87 cells, 72 h, MTT, n=3), less than 10 nM; with HCT116 cells (HCT-116, HCT116 cells, 72 h, MTT, n=3), less than 10 nM; in the series on HT29 cells (HT-29, HT29 cells, 72 h, MTT, n=3) it was less than 10 nM. For the same molecule, the “MDA-MB-468 Inh.max” value in the series on MDA-MB-468 cells (MDA-MB-468 cells, 72 h, MTT) is more than 80%. In addition, in the series on NCI-N87 cells (NCI-N87 cells, 72 h, MTT), the “NCI-N87 Inh.max” value is reported as more than 70%. Further, the “HT29 Inh.max” value in the series on HT29 cells (HT29 cells, 72 h, MTT) is more than 90%. In series [3], the safety result is “better safety”.
Take `[2H]C1([2H])OC(=O)[C@](O)(CC)c2cc3n(c(=O)c21)Cc1c-3nc2ccc(O)cc2c1CC` [Compound A-9]: the IC50 in the series on MDA-MB-468 cells (MDA-MB-468, 72 h) is less than 10 nM. In the series with MDA-MB-468 cells (MDA-MB-468 cells, 72 h, MTT), the “MDA-MB-468 Inh.max” value is more than 80%. For the same molecule, the IC50 with NCI-N87 cells (NCI-N87, 72 h) was less than 10 nM. Further, in the series with NCI-N87 cells (NCI-N87 cells, 72 h, MTT), the “NCI-N87 Inh.max” value is more than 80%. Also, in the series with HCT116 cells (HCT-116, 72 h), the IC50 is less than 10 nM. In series [2], this molecule had an AUC(0-inf) of 99.5 ng·h/mL, a Cmax of 288 ng/mL, a clearance of 167 mL/min/kg and a half-life of 1.35 h. The Vd in series [2] amounted to 19.5 L/kg. For the same molecule, the “HT29 Inh.max” value with HT29 cells (HT29 cells, 72 h, MTT) is more than 90%. Moreover, in the series on HT29 cells (HT-29, 72 h), the IC50 was less than 10 nM. The safety entry in series [3] is reported as “better safety”.

For the origin of these results see EP4534539A1, “DIDEUTERATED CAMPTOTHECIN DERIVATIVE AND PREPARATION METHOD THEREFOR” (priority 2022, dated 2023).
